Series [1] concerns lck kinase. Briefly: Immunoprecipitation kinase assay of lck. It counts as biochemical. The text has this:
(§1) The p210^bcr-abl kinase, src kinase and cdc-2 kinase were immunoprecipitated from K562 cells. The p145^abl kinase was immunoprecipitated from PC3M cells, PDGF receptor kinase from 3T3 cells, and EGF receptor kinase from A431 cells. MAP kinase was utilized as a pure protein and lck kinase was immunoprecipitated from peripheral blood lymphocytes of a normal volunteer.
(§2) Epidermal growth factor receptor (EGFR) was immunoprecipitated with 10 ,g anti-EGFR antibody (clone LA1) and human recombinant epidermal growth factor (both from Upstate Biotechnology Inc., Lake Placid, N.Y.). The assay was performed as described (17) but without removing the EGFR from the protein A-antibody solid support. Instead, epidermal growth factor, at a final concentration of 100 nM, was added to the kinase reaction mixture. Platelet derived growth factor receptor (DGFR) was immunoprecipitated with anti-human type A/type B PDGFR antibody (Upstate Biotechnology Inc.) and immune complex kinase assays performed as referenced (18) except that protein A-Sepharose coated with rabbit anti-mouse immunoglobulin was used instead of formalin-fixed Staphylococcus aureus to bind PDGFR-antibody conjugates. C-src was immunoprecipitated with anti-v-src antibody (Ab-1; Oncogene Science) and assayed as previously described (19) with the addition of enolase as exogenous substrate. […]

Series [2] concerns Platelet derived growth factor receptor (PDGFR). Briefly: PDGFR autophosphorylation immune complex kinase assay. It counts as biochemical.
From the text: as §1, §2

For series [3], the system named is cdc-2 kinase. Briefly: cdc-2 kinase assay with dephosphorylated casein. The conditions noted are these: Cerenkov counting of excised gel slices. The format is biochemical, human.
From the text: as §1, §2

In series [4] the test system is MAP kinase. The experiment in a line: MAP kinase assay with purified enzyme. The format is biochemical. The conditions noted are these: Cerenkov counting of excised gel slices.
From the text: as §1, §2

Usually IC50 stands for the concentration at which inhibition is half-maximal. On to “5'-GTCCACCATGGCGCGGCCGGC-3' [ODN1] (phosphorothioate caps, further chemistry not given here) [21mer ODN complementary to nucleotides -12 to +9 of the p210bcr-abl mRNA, phosphorothioate capped unless otherwise specified]”, for which the IC50 in series [1] (Cerenkov counting of excised gel slices) is above 50 µM; in series [2] (Cerenkov counting of excised gel slices, mean ± SD) it was 4.4 ± 2.3 µM; in series [3] it was above 50 µM; in series [4], above 100 µM. For the same substance, the “inhibition of lck (in words)” value in series [1] (ODN1 concentrations greater than 2 logs above the Ki for p210^bcr-abl) is “not significantly inhibited”. In addition, the “sensitivity of PDGF receptor relative to p145^abl or p210^bcr-abl” value in series [2] is on record as “almost a log less sensitive”.

The values are drawn from US5998596A, “Inhibition of protein kinase activity by aptameric action of oligonucleotides” (The United States of America as represented by the …).
